Laboratory results: patent US20230255988A1 (CORNELL UNIVERSITY, priority 2020, published 2023)
Entries after “also recorded” stand apart in the source; their conditions may differ.

Legend:
[1] = system: brain glucose utilization; assay: FDG PET imaging of glucose metabolism, regions of interest; type: in vivo, human
Text: Image acquisition, processing, and measurement. FDG PET imaging of glucose metabolism was acquired at baseline and after 12 months of treatment. All scans were acquired on a Siemens MCT 64 PET/CT PET-CT scanner at CUIMC. Study participants were maintained in an awake, at rest state with eyes and ears open in dim lighting during tracer uptake. Forty minutes after injection of the tracer, the emission image was acquired in four contiguous 5-minute frames. Frames were aligned with SPM 12, averaged, and then spatially normalized to the MNI template using SPM12 (https://www.fil.ion.ucl.ac.uk/spm/software/spm12/), resulting in one image per participant for each time point. Average voxel values within 90 regions of interest (ROIs) in the Automated Anatomic Labeling (AAL) Atlas were computed. […] The paracentral lobule and cerebellum were included as reference regions given their relative preservation during AD progression.

[2] = system: amyloid positive patients with amnestic mild cognitive impairment (aMCI) or mild dementia due to AD; assay: Clinical dementia rating (CDR) score, 12-month trial; type: in vivo, human
Text: ADAS-cog served as the primary endpoint. […] The trial duration per participant was twelve months. […] Clinical dementia rating (CDR) score. CDR is a five-point scale used to characterize six domains of cognitive and functional performance applicable to Alzheimer's disease and related dementias: Memory, Orientation, Judgment & Problem Solving, Community Affairs, Home & Hobbies, and Personal Care. A higher score indicates greater dementia (C. P. Hughes et al., British Journal of Psychiatry, 140, 566-572, 1982). The primary clinical outcome was ADAS-Cog, and secondary outcomes included the CDR score and fluorodeoxyglucose ([…]) imaging of the brain. AGE levels were an exploratory outcome. The primary analysis followed Intention-to-Treat (ITT) and the secondary analysis was per-protocol. The per-protocol analysis omitted one placebo participant who took benfotiamine from a commercial vendor. The ITT and per-protocol analysis are presented for the primary outcome ADAS-cog and the secondary measure CDR. For the other measures, only per-protocol analysis are presented.

[3] = system: brain glucose utilization; assay: FDG PET spatial covariance pattern score (SSM/PCA, CDR-derived); type: in vivo, human
Protocol: A multivariate machine learning approach was also applied to evaluate the FDG PET data (FIG. 10). Pattern-based methods have been increasingly applied to the evaluation of neurodegeneration and therapeutic response as they address the issue of complexity in comparing multiple regions and can increase signal to noise for analysis. Feature reduction was performed through use of the Scaled Subprofile Model (SSM), a form of Principal Components Analysis (PCA). The resulting components were used in regression modeling that determined spatial patterns of hypometabolism and hypermetabolism (or preservation relative to other regions) associated with the Clinical Dementia Rating (CDR) score.
Specifically, SSM by performing PCA on the PET-data array was run, with a subsequent brain-behavioral regression to derive a best-fitting pattern whose pattern scores correlates with the CDR score in a negative direction (i.e., the higher the pattern score, the lower the CDR).
To help with the imputation of the multivariate analysis, a generic multivariate decomposition was written as: Y(s,x)=w(s) v(x)+ε(s,x), where Y denotes the (log-transformed) data which depends on a participant and time index s and the voxel location x. […] The pattern score w(s) was chosen to correlate negatively with CDR across the data. The pattern v(x) is normalized to have unity Euclidean norm, i.e. ||v||=1. This means that the pattern score carries all information about the strength of the signal associated with the spatial pattern. Higher values of w(s) imply higher values of pattern-associated FDGPET signal in direct proportion in all regions.
To estimate the topographic robustness of any patterns of interest, a bootstrap resampling procedure was performed 10,000 times, for which data were resampled with replacement and the complete analytic recipe was executed on the resampled data, generating distribution for pattern loadings. […] For the correct interpretation, it is worth noting that positive and negative loadings describe only relative, and not absolute differences, in the signal associated with any covariance pattern. Since the residual signal in ε(s,x) was stripped off, there cannot be assurance that there are absolute differences in the total data for the regions with robust loadings.
After deriving and estimating the topographic robustness of the pattern, the pattern score was inspected for an effect of treatment at baseline and follow-up, also broken down by APOE ε4 status.

[4] = in vivo
Protocol: Measures of thiamine and its esters thiamine diphosphate (ThDP) and thiamine monophosphate (ThMP) provided blood markers of efficacy of drug delivery.
Study procedures. […] At the baseline visit, the cognitive tests were performed and blood drawn for measurement of thiamine, ThDP and ThMP by HPLC and APOE genotyping. Enrolled patients returned to the Burke outpatient clinic at month 3, 6, 9 and 12 for subsequent visits. At month 12, the final FDG/PET scan was performed at CUIMC.
The trial duration per participant was twelve months. […] At each visit, the patients returned the pill bottles for that period. The number of pills returned was used to assess compliance (the percent of pills consumed).

[5] = system: amyloid positive patients with amnestic mild cognitive impairment (aMCI) or mild dementia due to AD; assay: Neuropsychiatric Inventory (NPI), 12-month trial; type: in vivo, human
Protocol: The trial duration per participant was twelve months. […] Neuropsychiatric Inventory (NPI). The NPI assesses a wide range of behaviors encountered in dementia patients to provide a means of distinguishing frequency and severity of behavioral changes. Ten behavioral and two neuro-vegetative domains are evaluated through an interview with the caregiver.

[6] = system: advanced glycation end products (AGE); assay: Advanced glycation end products (AGE) level, ABCAM kit; type: in vivo, human; settings: 12 months
Protocol: Biomarker outcomes. AGE are formed during the Maillard reaction where reducing carbohydrates react with lysine side chains and N-terminal amino groups of various macromolecules, particularly proteins. AGE can adversely affect the function of these macromolecules. One of the most prevalent advanced glycation end products, N-epsilon-(carboxymethyl) lysine, has been implicated in oxidative stress and vascular damage. The quantity of AGE adduct in protein samples is determined by comparison with that of a known AGE-BSA standard curve. AGE levels were measured on plasma sample with a kit from ABCAM (AB238539), Cambridge, Mass., USA

increase in blood thiamine above baseline ([4]; human, 12 months): 161 fold
difference in thiamine levels by APOE-epsilon4 carrier status following treatment [4]: three-fold
SMILES: C/C(=C(\CCOP(=O)(O)O)SC(=O)c1ccccc1)N(C=O)Cc1cnc(C)nc1N [benfotiamine]
FDGPET Month_12 - Baseline change, Entorhinal_cortex Left ([1]; n = 34, 2×300 mg per day): −0.02 (0.11)
FDGPET Month_12 - Baseline change, Entorhinal_cortex Right ([1]; n = 34, 2×300 mg per day): −0.02 (0.10)
FDGPET Month_12 - Baseline change, Frontal cortex Left ([1]; n = 34, 2×300 mg per day): −0.03 (0.04)
FDGPET Month_12 - Baseline change, Frontal cortex Right ([1]; n = 34, 2×300 mg per day): −0.03 (0.04)
FDGPET Month_12 - Baseline change, Hippocampus Left ([1]; n = 34, 2×300 mg per day): −0.01 (0.04)
FDGPET Month_12 - Baseline change, Hippocampus Right ([1]; n = 34, 2×300 mg per day): −0.02 (0.04)
FDGPET Month_12 - Baseline change, Medial temporal Left ([1]; n = 34, 2×300 mg per day): −0.03 (0.04)
FDGPET Month_12 - Baseline change, Medial temporal Right ([1]; n = 34, 2×300 mg per day): −0.03 (0.05)
FDGPET Month_12 - Baseline change, Parietal Left ([1]; n = 34, 2×300 mg per day): −0.02 (0.05)
FDGPET Month_12 - Baseline change, Parietal Right ([1]; n = 34, 2×300 mg per day): −0.02 (0.04)
FDGPET Month_12 - Baseline change, Percuneus Left ([1]; n = 34, 2×300 mg per day): −0.03 (0.04)
FDGPET Month_12 - Baseline change, Percuneus Right ([1]; n = 34, 2×300 mg per day): −0.03 (0.04)
FDGPET Month_12 - Baseline change, Posterior cingulate Left ([1]; n = 34, 2×300 mg per day): −0.02 (0.03)
FDGPET Month_12 - Baseline change, Posterior cingulate Right ([1]; n = 34, 2×300 mg per day): −0.02 (0.03)
FDGPET Month_12 - Baseline change, Prefrontal_cortex Left ([1]; n = 34, 2×300 mg per day): −0.02 (0.04)
FDGPET Month_12 - Baseline change, Prefrontal_cortex Right ([1]; n = 34, 2×300 mg per day): −0.03 (0.04)
FDGPET Month_12 - Baseline change, Whole_brain ([1]; n = 34, 2×300 mg per day): −0.01 (0.02)
FDGPET in pre-specified regions of interest, benfotiamine versus placebo ([1]; paracentral lobule and cerebellum as reference region): No significant differences
Mean change in global CDR from baseline to 12 months ([2]; 2×300 mg per day, placebo 0.22, p=0.034): 0.05
reduction of deterioration (global CDR change versus placebo) ([2]; baseline to 12 months): 77%
CDR response by APOE ε4 status ([2]; non-APOE ε4 group p=0.013): non-APOE ε4 group seemed to respond much more; also recorded: only the non-APOE ε4 allele group differs
mean change in CDR-SB from baseline to 12 months, versus placebo ([2]; p=0.078): difference at trend level
CDR-derived FDG PET pattern, treatment effect in APOE ε4 negative population ([3]; 12 months, p=0.019): treatment effect at 12 months; also recorded: show a treatment effect
CDR-derived FDG PET pattern, treatment effect in APOE ε4 positive population ([3]; 12 months, p=0.255): not in APOE ε4 positive population; also recorded: do not
longitudinal change in pattern score (follow-up minus baseline), treated versus untreated ([3]; 59 participants who completed follow-up, p=0.638): No difference in longitudinal change
FDG PET pattern score at time point of 12 months, treatment versus untreated ([3]; FIG. 10A): slightly but significantly higher
FDG PET pattern score, change from baseline to 12 months versus untreated ([3]; all participants, APOE status not considered): significantly higher change from baseline to 12 months in treated than untreated participants
change in NPI, whole population ([5]; 12 months versus placebo): No differences
NPI score in males ([5]; males, month 9 (0.014) and month 12 (p=0.035)): significantly reduced scores; also recorded: highly significant benefit in males
AGE effect by APOE ε4 status [6]: more apparent in non-APOE ε4 patients
effect on AGE over the course of the disease ([6]; 13 benfotiamine patients, p=0.043): inhibited the increase in AGE
